How the values were obtained:
MMP13 in SW1353 cells = assay: OSM/IL-1β signaling assay (MMP13 levels in SW1353 cells); assay type: cell-based; settings: Homo sapiens; SW1353 cells, OSM and IL-1β triggered, MMP13 levels 48 hours after triggering; read-out: MMP13 EC50;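 also: secreted MMP13 captured by antibody, activated with APMA and its activity read by fluorescence, inhibition scaled between vehicle-treated triggered wells (0%) and untriggered wells (100%)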
[1] = Microsomal stability, human liver microsomes; assay type: in vitro ADME; settings: percentage of compound remaining after 60 minutes, 3 μM compound
Procedure, shortened: (§1)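 Percent parent remaining after 60 min was determined by LCMS against a time-zero sample quenched before microsome addition. Incubations ran at 37°C with liver microsomes and a G6PDH-based NADPH-regenerating cofactor mix. Quench was MeOH or ACN (1:1).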

[2] = test system: JAK-STAT signalling in HeLa cells; assay: JAK-STAT signalling assay (OSM-triggered pSTAT1(2)-luciferase reporter in HeLa cells); assay type: cell-based; settings: Homo sapiens; HeLa cells, OSM-triggered pSTAT1(2)-luciferase reporter; read-out: STAT signalling EC50
Procedure, shortened: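 Read-out is oncostatin M–driven pSTAT1(2)-luciferase activity, corrected by co-transfected LacZ β-galactosidase, in transiently transfected HeLa cells cultured overnight at 37 °C, 10% CO2. Inhibition percentages against positive and negative controls were plotted across doses to derive EC50.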

[3] = Caco2 permeability (bi-directional); assay type: in vitro ADME, human; settings: human, pH 7.4; for Papp A→B at 1 h, 10 µM: Caco-2, apical to basolateral, read-out: Papp (A2B); for efflux ratio at 1 h, 10 µM: Caco-2, ratio of PappB>A/PappA>B
Procedure, shortened: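 Compound concentrations in both chambers were measured by LC-MS/MS after 1 h incubation at 37 °C on an orbital shaker. Efflux ratio is PappB>A over PappA>B. Lucifer Yellow (50 μM in donor) confirmed layer integrity, with permeability of ≤100 nm/s required.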

[4] = biological target: Recombinant human JAK1 catalytic domain (Homo sapiens (Human), UniProt P23458); assay: JAK1 inhibition assay; assay type: biochemical; settings: semi-quantitative score
Procedure, shortened: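 IC50 values come from dose-response series, with each point expressed as percent inhibition of cpm. Vehicle sets full activity and 10 μM staurosporine sets background. Incorporated radioactivity counted by scintillation after washing with 75 mM phosphoric acid.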

[5] = Microsomal stability, rat liver microsomes; assay type: in vitro ADME; settings: percentage of compound remaining after 60 minutes, 3 μM compound
Procedure, shortened: as §1

[6] = biological target: Recombinant human JAK2 catalytic domain (Homo sapiens (Human), UniProt O60674); assay: JAK2 inhibition assay; assay type: biochemical; settings: semi-quantitative score
Procedure, shortened: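 Activity was taken as vehicle cpm minus cpm with 10 μM staurosporine, and inhibition was expressed on that scale. Incubation was 90 min at 30 °C, followed by acid quench, phosphoric acid washes and Microscint counting. Compounds were tested as dose series to obtain IC50.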

[7] = biological target: Recombinant human JAK3 catalytic domain (Homo sapiens (Human), UniProt P52333); assay: JAK3 inhibition assay; assay type: biochemical; settings: semi-quantitative score
TNF-alpha release = assay: Septic shock model (LPS-induced TNF release); assay type: in vivo, mouse; settings: 30 mg/kg po, BALB/cJ mice, LPS ip; statistically significant
Description: Injection of lipopolysaccharide (LPS) induces a rapid release of soluble tumour necrosis factor (TNF-alpha) into the periphery. This model is used to analyse prospective blockers of TNF release in vivo.
Six BALB/cJ female mice (20 g) per group were treated at the intended dosing once, po. Thirty minutes later, LPS (15 μg/kg; E. Coli serotype 0111:B4) was injected ip. Ninety minutes later, mice were euthanized and blood was collected. Circulating TNF alpha levels were determined using commercially available ELISA kits. Dexamethasone (5 μg/kg) was used as a reference anti-inflammatory compound. Selected compounds are tested at one or multiple doses, e.g. 3 and/or 10 and/or 30 mg/kg, po.

[8] = biological target: Recombinant human TYK2 catalytic domain (Homo sapiens (Human), UniProt P29597); assay: TYK2 inhibition assay; assay type: biochemical; settings: semi-quantitative score
Procedure, shortened: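 Recombinant human TYK2 catalytic domain; radiometric kinase reaction run 90 min at 30° C, stopped with phosphoric acid, washed and counted by scintillation.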

Sequence of Recombinant human JAK2 catalytic domain (O60674 808-1132): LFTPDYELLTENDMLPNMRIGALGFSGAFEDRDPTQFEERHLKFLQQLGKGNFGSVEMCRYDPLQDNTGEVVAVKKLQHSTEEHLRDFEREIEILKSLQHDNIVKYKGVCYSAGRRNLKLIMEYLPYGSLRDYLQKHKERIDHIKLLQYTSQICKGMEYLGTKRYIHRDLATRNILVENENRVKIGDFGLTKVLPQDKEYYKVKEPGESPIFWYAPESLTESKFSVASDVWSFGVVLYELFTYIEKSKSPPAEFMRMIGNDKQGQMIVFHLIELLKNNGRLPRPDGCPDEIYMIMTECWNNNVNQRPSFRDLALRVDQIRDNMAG
Sequence of Recombinant human JAK1 catalytic domain (P23458 850-1154): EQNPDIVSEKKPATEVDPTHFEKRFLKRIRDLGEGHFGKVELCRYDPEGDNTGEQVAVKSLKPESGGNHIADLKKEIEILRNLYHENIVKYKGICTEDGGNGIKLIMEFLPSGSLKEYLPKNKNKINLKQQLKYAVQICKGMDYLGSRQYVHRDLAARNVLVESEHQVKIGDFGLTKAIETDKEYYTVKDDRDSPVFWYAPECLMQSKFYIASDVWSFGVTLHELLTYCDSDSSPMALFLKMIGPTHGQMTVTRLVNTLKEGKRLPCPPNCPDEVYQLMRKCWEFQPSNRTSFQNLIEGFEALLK
Sequence of Recombinant human JAK3 catalytic domain (P52333 781-1124): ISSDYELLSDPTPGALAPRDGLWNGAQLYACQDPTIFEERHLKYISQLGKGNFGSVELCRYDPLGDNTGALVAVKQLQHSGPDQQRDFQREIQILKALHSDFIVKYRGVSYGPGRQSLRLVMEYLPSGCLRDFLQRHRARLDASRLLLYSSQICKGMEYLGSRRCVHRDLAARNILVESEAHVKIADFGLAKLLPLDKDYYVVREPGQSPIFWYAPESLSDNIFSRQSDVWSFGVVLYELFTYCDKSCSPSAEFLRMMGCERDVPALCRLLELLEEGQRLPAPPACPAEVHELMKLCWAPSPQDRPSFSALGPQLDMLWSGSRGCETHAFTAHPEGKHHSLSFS
Sequence of Recombinant human TYK2 catalytic domain (P29597 871-1187): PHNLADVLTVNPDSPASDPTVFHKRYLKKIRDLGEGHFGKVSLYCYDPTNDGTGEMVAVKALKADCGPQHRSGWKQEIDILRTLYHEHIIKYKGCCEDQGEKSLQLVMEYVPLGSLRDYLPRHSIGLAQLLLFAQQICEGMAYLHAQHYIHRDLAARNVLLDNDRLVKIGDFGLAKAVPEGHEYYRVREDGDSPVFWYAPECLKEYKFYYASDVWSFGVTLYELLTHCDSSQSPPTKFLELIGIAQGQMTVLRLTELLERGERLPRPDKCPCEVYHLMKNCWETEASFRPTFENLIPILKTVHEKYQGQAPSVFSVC

| Compound | EC50 (MMP13 in SW1353 cells) | Microsomal Stability Human (%) [1] | EC50 [2] | Papp A→B at 1 h, 10 µM [3] | efflux ratio at 1 h, 10 µM [3] | IC50 [4] | Microsomal Stability Rat (%) [5] | IC50 [6] | IC50 [7] | reduction in the TNF release (TNF-alpha release) | IC50 [8] |
| --- | --- | --- | --- | --- | --- | --- | --- | --- | --- | --- | --- |
| Cc1cc(COc2ccc(-c3cccc4nc(NC(=O)C5CC5)nn34)cc2)no1 [Compound 52, N-(5-(4-((5-methylisoxazol-3-yl)methoxy)phenyl)-[1,2,4]triazolo[1,5-a]pyridin-2-yl)cyclopropanecarboxamide] | > 1000 nM | * (* 0-25) | 501 to 1000 nM | 31.8 ×10⁻⁶ cm/s | 1.02 | < 100 nM | * (* 0-25) | < 100 nM | 501 to 1000 nM | > 50% | 501 to 1000 nM |
| O=C(Nc1nc2cccc(-c3ccc(CNc4ncccn4)cc3)n2n1)C1CC1 [Compound 229, Cyclopropanecarboxylic acid {5-[4-(pyrimidin-2-ylaminomethyl)-phenyl]-[1,2,4]triazolo[1,5-a]pyridin-2-yl}-amide] | 501 to 1000 nM | *** (*** 51-75) | 501 to 1000 nM | 25.9 ×10⁻⁶ cm/s | 1.6 | < 100 nM | *** (*** 51-75) | < 100 nM | – | > 50% | – |
| O=C(Nc1nc2cccc(-c3ccc(C(=O)N4CCC(C(=O)c5ccccc5)CC4)cc3)n2n1)C1CC1 [Compound 74, N-(5-(4-(4-benzoylpiperidine-1-carbonyl)phenyl)-[1,2,4]triazolo[1,5-a]pyridin-2-yl)cyclopropanecarboxamide] | > 1000 nM | * (* 0-25) | > 1000 nM | 23.3 ×10⁻⁶ cm/s | 1.14 | < 100 nM | **** (**** 76-100) | 101 to 500 nM | > 1000 nM | > 50% | – |
| O=C(Nc1nc2cccc(-c3ccc(C(=O)N4CCS(=O)(=O)CC4)cc3)n2n1)C1CC1 [Compound 207, Cyclopropanecarboxylic acid {5-[4-(1,1-dioxo-thiomorpholine-4-carbonyl)-phenyl]-[1,2,4]triazolo[1,5-a]pyridin-2-yl}-amide] | > 1000 nM | **** (**** 76-100) | > 1000 nM | 0.05 ×10⁻⁶ cm/s | 104 | < 100 nM | **** (**** 76-100) | < 100 nM | – | > 50% | – |
| O=C(NCCOc1ccccc1)c1ccc(-c2cccc3nc(NC(=O)C4CC4)nn23)cc1 [Compound 60, 4-(2-(cyclopropanecarboxamido)-[1,2,4]triazolo[1,5-a]pyridin-5-yl)-N-(2-phenoxyethyl)benzamide] | 501 to 1000 nM | ** (** 26-50) | 101 to 500 nM | 16.9 ×10⁻⁶ cm/s | 2.55 | < 100 nM | * (* 0-25) | < 100 nM | 101 to 500 nM | > 50% | 501 to 1000 nM |
| Cc1ccc(COc2ccc(-c3cccc4nc(NC(=O)C5CC5)nn34)cc2)cn1 [Compound 197, Cyclopropanecarboxylic acid {5-[4-(6-methyl-pyridin-3-ylmethoxy)-phenyl]-[1,2,4]triazolo[1,5-a]pyridin-2-yl}-amide] | > 1000 nM | ** (** 26-50) | 101 to 500 nM | – | – | < 100 nM | *** (*** 51-75) | < 100 nM | – | > 50% | – |
| CC(=O)N(Cc1ccccn1)c1ccc(-c2cccc3nc(NC(=O)C4CC4)nn23)cc1 [Compound 208, Cyclopropanecarboxylic acid {5-[4-(acetyl-pyridin-2-ylmethyl-amino)-phenyl]-[1,2,4]triazolo[1,5-a]pyridin-2-yl}-amide] | > 1000 nM | *** (*** 51-75) | > 1000 nM | – | – | < 100 nM | **** (**** 76-100) | < 100 nM | – | > 50% | – |
| O=C(Nc1nc2cccc(-c3ccc(OCc4ccccc4)cc3)n2n1)C1CC1 [Compound 12, N-(5-(4-(benzyloxy)phenyl)-[1,2,4]triazolo[1,5-a]pyridin-2-yl)cyclopropanecarboxamide] | > 1000 nM | *** (*** 51-75) | 101 to 500 nM | 23.4 ×10⁻⁶ cm/s | 0.82 | < 100 nM | **** (**** 76-100) | < 100 nM | < 100 nM | > 50% | – |
| O=C(Nc1nc2cccc(-c3ccc(C(=O)N4CCC(C(F)(F)F)CC4)cc3)n2n1)C1CC1 [Compound 148, N-(5-(4-(4-(trifluoromethyl)piperidine-1-carbonyl)phenyl)-[1,2,4]triazolo[1,5-a]pyridin-2-yl)cyclopropanecarboxamide] | > 1000 nM | *** (*** 51-75) | > 1000 nM | – | – | < 100 nM | ** (** 26-50) | – | – | > 50% | – |
| O=C(Nc1nc2cccc(-c3ccc(OCc4cccnc4)cc3)n2n1)C1CC1 [Compound 36, N-(5-(4-(pyridin-3-ylmethoxy)phenyl)-[1,2,4]triazolo[1,5-a]pyridin-2-yl)cyclopropanecarboxamide] | 501 to 1000 nM | * (* 0-25) | 101 to 500 nM | – | 0.89 | – | *** (*** 51-75) | – | – | > 50% | – |
| O=C(Nc1nc2cccc(-c3ccc(OCc4ccccn4)cc3)n2n1)C1CC1 [Compound 37, N-(5-(4-(pyridin-2-ylmethoxy)phenyl)-[1,2,4]triazolo[1,5-a]pyridin-2-yl)cyclopropanecarboxamide] | > 1000 nM | *** (*** 51-75) | 501 to 1000 nM | – | – | – | *** (*** 51-75) | – | – | > 50% | – |
| O=C(Nc1nc2cccc(-c3ccc(OCc4ccc(-n5cccn5)cc4)cc3)n2n1)C1CC1 [Compound 125] | > 1000 nM | *** (*** 51-75) | > 1000 nM | – | – | < 100 nM | **** (**** 76-100) | – | < 100 nM | > 50% | – |
